Assay results as given in US5498427A, “Solutions for the perfusion, preservation and reperfusion of organs” (Pasteur Merieux Serums et Vaccines, priority 1990, dated 1996).

Tests used:
[1] = test system: isolated hearts from Sprague-Dawley rats; experiment: Test of solutions containing NAC on isolated rat heart preparations (Langendorff, arrest, 5 h cold storage, 1 h ischemia, 1 h reperfusion); conditions: for Left ventricular pressure developed, Reperfusion: after ischemia and reperfusion; for Left ventricular pressure developed, Reperfusion / Coronary flow rate, Reperfusion / Coronary flow rate, Normal / Left ventricular pressure developed, Normal: N = 10; for Coronary flow rate, Normal / Left ventricular pressure developed, Normal: pre-ischaemic reference value
Protocol: Fifty isovolumic preparations of isolated hearts from Sprague-Dawley rats weighing 300 grams were used, the hearts being connected rapidly to a non-recirculating Langendorff perfusion column to establish a retrograde perfusion using an oxygenated (95% O2, 5% CO2) Krebs-Henseleit buffer, to establish a retrograde perfusion at a pressure of 100 cm of water. The left ventricular pressure, its derivative and the end-diastolicpressure were recorded continuously. The coronary flow rate was measured by noting the venous coronary flow rate. Left ventricular stimulation was maintained at a frequency of 320/min.
After a twenty-minute monitoring period, thirty hearts were arrested by perfusion using the preservation and perfusion solution at 4° C., and then rapidly placed in glass containers filled with the same solution and surrounded by ice. The hearts were maintained therein for five hours, with a mean myocardial temperature of 2° C. at the end of storage. The hearts were then reconnected to the perfusion circuit and subjected to an additional ischemia for one hour at between 15° and 18° C. The hearts were divided into three groups, including a control group which received a first perfusion of a solution which was identical but devoid of NAC on establishment of the post-storage ischemia and an additional perfusion of 25 ml of this solution immediately before unclamping the aorta, the perfusions being performed at 4° C. and 28° C., respectively. […] In the third group, a solution containing NAC at 28° C. was distributed in a single dose at the end of the ischemia. In this latter group, the NAC concentration was adjusted to 0.072 M so that all the hearts treated received the same amount of this substance, that is to say approximately 1.80 millimoles. The bottles containing the solutions as well as the connecting tubes were protected from light in order to avoid oxidation. In all three groups, the perfusions after storage were delivered at a pressure of 30 cm of water. After a period of ischemia of six hours, the hearts were reperfused for one hour at 37° C.
For all three groups, the stimulation was stopped and the left intraventricular balloon deflated during the period of ischemia so as to simulate clinical conditions. After reperfusion, stimulation was reestablished. Isovolumetric measurements of the coronary flow rate, the left ventricular pressure, its first derivative and the telediastolic pressure were performed three times during the monotoring period and then at 5, 30, 45 and 60 minutes during the reperfusion.

[2] = hypothermic storage conditions in usual bags, periods up to 3 hours
Source text: In one embodiment the solution is stored, as a whole, in the container.

[3] = Group II, multidose solution enriched with NAC, versus Groups I and III
[4] = Second group, (0.04 M) NAC multidose
[5] = Third group, (0.07 M) NAC single dose at end of ischemia

Structure (SMILES) | Left ventricular diastolic pressure: postischemic contracture ([1]; Group II, multidose solution enriched with NAC) | Left ventricular pressure developed throughout the reperfusion period [1, 3] | Postischemic derivative dP/dt [1, 3] | Left ventricular diastolic pressure: compliance ([1]; Group III, reperfusion supplemented with NAC only at end of ischemia) | Left ventricular pressure loss after ischemia and reperfusion ([1]; Group III, reperfusion supplemented with NAC only at end of ischemia, versus Group II) | Left ventricular pressure developed, Reperfusion [1, 4] [mm Hg] | Coronary flow rate, Reperfusion ([1]; Second group, (0.04 M) NAC multidose, after sixty minutes of reperfusion) [mL/min] | Coronary flow rate, Normal [1, 4] [mL/min] | Left ventricular pressure developed, Normal [1, 4] [mm Hg] | Left ventricular pressure developed, Reperfusion [1, 5] [mm Hg] | Coronary flow rate, Reperfusion ([1]; Third group, (0.07 M) NAC single dose at end of ischemia, after sixty minutes of reperfusion) [mL/min] | Coronary flow rate, Normal [1, 5] [mL/min] | Left ventricular pressure developed, Normal [1, 5] [mm Hg] | Recovery of coronary flow rate ([1]; groups treated with NAC versus control, after sixty minutes of reperfusion) | Rate of glutathione oxydation on storage [2]
CC(=O)N[C@@H](CS)C(=O)O [NAC, N-acetylcysteine] | significantly decreased | significantly greater pressure was developed | largest values | significant loss of compliance | significantly greater pressure losses | 101.5 ± 3.4 | 12.1 ± 0.5 | 14.8 ± 0.6 | 126.4 ± 2.8 | 69.8 ± 3.6 | 13.4 ± 0.4 | 16.0 ± 0.5 | 129.7 ± 2.0 | best recovery of coronary flow rate | –
N[C@@H](CCC(=O)N[C@@H](CS)C(=O)NCC(=O)O)C(=O)O [glutathione] | – | – | – | – | – | – | – | – | – | – | – | – | – | – | only minimal rate of glutathione oxydation
